Results: paper PMC5007552, “The hVps34‐SGK3 pathway alleviates sustained PI3K/Akt inhibition by stimulating mTORC1 and tumour growth” (The EMBO Journal, 2016)
Values joined by “and” are separate entries in the source; they are usually repeats but may differ in a detail not shown here. Identical values can stand only once.

System: ZR-75-1 cells
Assay: NanoString human kinome mRNA quantification
Format: cell-based
From the text: Human mRNAs were hybridised to NanoString human kinome and control code sets, then subjected to quantification using NanoString software. […] To permit data compaction, and simple kinome‐wide comparisons, the fold changes are log2 transformed. […] Cell pellets were resuspended at a concentration of ~6,500 cells/μl in RLT buffer (Qiagen). […] For total copy numbers, triplicate normalised count values were averaged, and to calculate fold induction, means were divided by triplicate mean values from matched DMSO controls. P‐values were calculated using unpaired t‐test (GraphPad Prism software) by employing treated and control count data for each kinase mRNA.

NC1(c2ccc(-c3nc4ccn5c(=O)[nH]nc5c4cc3-c3ccccc3)cc2)CCC1 [MK-2206]
Normalised counts HIPK1 (HIPK1 mRNA, single replicates): 558.67 and 555.89 and 631.82
Average normalised counts HIPK2 (HIPK2 mRNA, average of 3 replicates): 697.1
Normalised counts HIPK2 (HIPK2 mRNA, single replicates): 690.47 and 698.36 and 702.47
Average normalised counts HIPK3 (HIPK3 mRNA, average of 3 replicates): 924.78
Normalised counts HIPK3 (HIPK3 mRNA, single replicates): 914.99 and 915.54 and 943.81
Average normalised counts HIPK4 (HIPK4 mRNA, average of 3 replicates): 8.793
Normalised counts HIPK4 (HIPK4 mRNA, single replicates): 13.29 and 6.84 and 6.25
Average normalised counts HSPB8 (HSPB8 mRNA, average of 3 replicates): 703.253
Normalised counts HSPB8 (HSPB8 mRNA, single replicates): 670.48 and 739.19 and 700.09
Average normalised counts HUNK (HUNK mRNA, average of 3 replicates): 120.407
Normalised counts HUNK (HUNK mRNA, single replicates): 115.1 and 122.38 and 123.74
Average normalised counts HUS1 (HUS1 mRNA, average of 3 replicates): 872.423
Normalised counts HUS1 (HUS1 mRNA, single replicates): 841.36 and 886.88 and 889.03
Average normalised counts IGF1R (IGF1R mRNA, average of 3 replicates): 2361.57
Normalised counts IGF1R (IGF1R mRNA, single replicates): 2300.25 and 2376.77 and 2407.7
Average normalised counts IKBKB (IKBKB mRNA, average of 3 replicates): 768.703
Normalised counts IKBKB (IKBKB mRNA, single replicates): 749.55 and 764.38 and 792.18
Average normalised counts IKBKE (IKBKE mRNA, average of 3 replicates): 224.477
Normalised counts IKBKE (IKBKE mRNA, single replicates): 217.95 and 203.13
Average normalised counts ILK (ILK mRNA, average of 3 replicates): 435.073
Normalised counts ILK (ILK mRNA, single replicates): 419.6 and 422.1 and 463.52
Average normalised counts INSR (INSR mRNA, average of 3 replicates): 414.107
Normalised counts INSR (INSR mRNA, single replicates): 395.06 and 455.98 and 391.28
Average normalised counts INSRR (INSRR mRNA, average of 3 replicates): 3.12
Normalised counts INSRR (INSRR mRNA, single replicates): 2.39 and 5.97 and 1
Average normalised counts IRAK1 (IRAK1 mRNA, average of 3 replicates): 1144.48
Normalised counts IRAK1 (IRAK1 mRNA, single replicates): 1168.59 and 1134.47 and 1130.37
Average normalised counts IRAK2 (IRAK2 mRNA, average of 3 replicates): 17.2833
Normalised counts IRAK2 (IRAK2 mRNA, single replicates): 12.38 and 18.13 and 21.34
Average normalised counts IRAK3 (IRAK3 mRNA, average of 3 replicates): 4.617
Normalised counts IRAK3 (IRAK3 mRNA, single replicates): 3.29 and 5.1 and 5.46
Average normalised counts IRAK4 (IRAK4 mRNA, average of 3 replicates): 506.37
Normalised counts IRAK4 (IRAK4 mRNA, single replicates): 495.95 and 488.99 and 534.17
Average normalised counts ITK (ITK mRNA, average of 3 replicates): 1.763
Normalised counts ITK (ITK mRNA, single replicates): 3.29 and 1 (2×)
Average normalised counts JAK1 (JAK1 mRNA, average of 3 replicates): 943.323
Normalised counts JAK1 (JAK1 mRNA, single replicates): 967.71 and 921.63 and 940.63
Average normalised counts JAK2 (JAK2 mRNA, average of 3 replicates): 378.063
Normalised counts JAK2 (JAK2 mRNA, single replicates): 379.61 and 384.74 and 369.84
Average normalised counts JAK3 (JAK3 mRNA, average of 3 replicates): 2.113
Normalised counts JAK3 (JAK3 mRNA, single replicates): 1.48 and 3.37 and 1.49
Average normalised counts KALRN (KALRN mRNA, average of 3 replicates): 1
Normalised counts KALRN (KALRN mRNA, single replicates): 1
Average normalised counts KDR (KDR mRNA, average of 3 replicates): 1.163
Normalised counts KDR (KDR mRNA, single replicates): 1 (2×) and 1.49
Average normalised counts KIAA1804 (KIAA1804 mRNA, average of 3 replicates): 209.647
Normalised counts KIAA1804 (KIAA1804 mRNA, single replicates): 226.9 and 199.7 and 202.34
Average normalised counts KIT (KIT mRNA, average of 3 replicates): 1
Normalised counts KIT (KIT mRNA, single replicates): 1
Average normalised counts KSR1 (KSR1 mRNA, average of 3 replicates): 15.5767
Normalised counts KSR1 (KSR1 mRNA, single replicates): 14.2 and 11.19 and 21.34
Average normalised counts KSR2 (KSR2 mRNA, average of 3 replicates): 58.27
Normalised counts KSR2 (KSR2 mRNA, single replicates): 61.47 and 55.49 and 57.85
Average normalised counts LATS1 (LATS1 mRNA, average of 3 replicates): 1079.17
Normalised counts LATS1 (LATS1 mRNA, single replicates): 1068.6 and 1080.61 and 1088.29
Average normalised counts LATS2 (LATS2 mRNA, average of 3 replicates): 223.537
Normalised counts LATS2 (LATS2 mRNA, single replicates): 222.36 and 229.24 and 219.01
Average normalised counts LCK (LCK mRNA, average of 3 replicates): 1
Normalised counts LCK (LCK mRNA, single replicates): 1
Average normalised counts LIMK1 (LIMK1 mRNA, average of 3 replicates): 487.24
Normalised counts LIMK1 (LIMK1 mRNA, single replicates): 499.59 and 471.62 and 490.51
Average normalised counts LMTK2 (LMTK2 mRNA, average of 3 replicates): 633.213
Normalised counts LMTK2 (LMTK2 mRNA, single replicates): 615.03 and 621.04 and 663.57
Average normalised counts LMTK3 (LMTK3 mRNA, average of 3 replicates): 14.4067
Normalised counts LMTK3 (LMTK3 mRNA, single replicates): 19.66 and 8.58 and 14.98
Average normalised counts LRRK1 (LRRK1 mRNA, average of 3 replicates): 204.153
Normalised counts LRRK1 (LRRK1 mRNA, single replicates): 193.27 and 214.47 and 204.72
Average normalised counts LRRK2 (LRRK2 mRNA, average of 3 replicates): 465.12
Normalised counts LRRK2 (LRRK2 mRNA, single replicates): 461.41 and 439.47 and 494.48
Average normalised counts LTK (LTK mRNA, average of 3 replicates): 1
Normalised counts LTK (LTK mRNA, single replicates): 1
Average normalised counts LYN (LYN mRNA, average of 3 replicates): 10.41
Normalised counts LYN (LYN mRNA, single replicates): 11.48 and 10.32 and 9.43
MAK Normalised counts Average (MAK mRNA, average of 3): 7.77
MAK Normalised counts (single replicates) (MAK mRNA, replicates 1-3): 7.84 and 6.84 and 8.63
MAP2K1 Normalised counts Average (MAP2K1 mRNA, average of 3): 1481.58
MAP2K1 Normalised counts (single replicates) (MAP2K1 mRNA, replicates 1-3): 1469.45 and 1465.46 and 1509.84
MAP2K2 Normalised counts Average (MAP2K2 mRNA, average of 3): 2403.01
MAP2K2 Normalised counts (single replicates) (MAP2K2 mRNA, replicates 1-3): 2394.14 and 2328.31
MAP2K3 Normalised counts Average (MAP2K3 mRNA, average of 3): 410.613
MAP2K3 Normalised counts (single replicates) (MAP2K3 mRNA, replicates 1-3): 415.06 and 378.66 and 438.12
MAP2K4 Normalised counts Average (MAP2K4 mRNA, average of 3): 708.25
MAP2K4 Normalised counts (single replicates) (MAP2K4 mRNA, replicates 1-3): 670.48 and 728.77 and 725.5
MAP2K5 Normalised counts Average (MAP2K5 mRNA, average of 3): 322.173
MAP2K5 Normalised counts (single replicates) (MAP2K5 mRNA, replicates 1-3): 317.8 and 316.98 and 331.74
MAP2K6 Normalised counts Average (MAP2K6 mRNA, average of 3): 279.153
